In patent US11311522B1 (Cavion, Inc., priority 2018, dated 2022):
pIC50: −log10 of the molar value. Values joined by “and” are separate entries in the source; they are usually repeats but may differ in a detail not shown here. Equal values may be shown once. Read-outs that look alike come from different tables or passages of the source.

Tests used:
[1] = in vivo; conditions: rat, po
[2] = Pharmacokinetics in dogs; format: in vivo, dog
Protocol: (§3) The validity and reproducibility of the assays were determined, and the precision and accuracy for calibration standards and quality control samples were examined. […] The analytes were stable in plasma under the storage and assay conditions. […] Assay performances were satisfactory and met acceptance criteria for system performance suitability, quantitation range, calibration linearity, assay accuracy and precision, and assay recovery.

[3] = for Day 90 Free Plasma AUC24 at NOAEL for Dog 90-Day Toxicology: 30 mg/kg/day; for Day 90 Free Plasma AUC24 at NOAEL for Rat 90-Day Toxicology: 300 mg/kg/day
[4] = tested on: CYP1A2, CYP3A4, CYP2C8, CYP2C9, CYP2C19, CYP2D6, CYP2B6; assay: CYP inhibition in human liver microsomes; format: in vitro ADME
[5] = tested on: T1, CYP1A2, CYP3A4, CYP2C8, CYP2C9, CYP2C19, CYP2D6; assay: CYP inhibition in human liver microsomes; format: in vitro ADME; conditions: human liver microsomes
T1 construct: IC50, CYP1A2, CYP3A4, CYP2C8, CYP2C9, CYP2C19, CYP2D6; other: human liver microsomes

[6] = Crossover bioavailability study IR vs MR1 vs MR2 capsules: PK; set-up: AUC72hr: unit not given beside the values; conditions: for AUC728, Mean / AUC728: single 8 mg dose, fasted; for AUC728, Mean: N=15; for AUC728: individual subjects; for AUC72hr: plasma
[7] = Phase 1 single-dose pharmacokinetics (PN001, PN002/Part I, PN003, PN005); format: in vivo, human; conditions: for Cmax / AUC(0-t): male, human, plasma, oral; for AUC(0-t): read-out: AUC0-24
[8] = In vitro plasma protein binding, dog; format: in vitro ADME
From the text: (§1) CX-8998 distributes readily to the brain in rats and to brain and cerebral spinal fluid (CSF) in dogs.

[9] = biological target: T2, breast cancer resistance protein (BCRP) (Homo sapiens, UniProt Q9UNQ0); assay: BCRP transport; format: in vitro ADME; conditions: 30 μM
T2 sequence (Q9UNQ0 1-655): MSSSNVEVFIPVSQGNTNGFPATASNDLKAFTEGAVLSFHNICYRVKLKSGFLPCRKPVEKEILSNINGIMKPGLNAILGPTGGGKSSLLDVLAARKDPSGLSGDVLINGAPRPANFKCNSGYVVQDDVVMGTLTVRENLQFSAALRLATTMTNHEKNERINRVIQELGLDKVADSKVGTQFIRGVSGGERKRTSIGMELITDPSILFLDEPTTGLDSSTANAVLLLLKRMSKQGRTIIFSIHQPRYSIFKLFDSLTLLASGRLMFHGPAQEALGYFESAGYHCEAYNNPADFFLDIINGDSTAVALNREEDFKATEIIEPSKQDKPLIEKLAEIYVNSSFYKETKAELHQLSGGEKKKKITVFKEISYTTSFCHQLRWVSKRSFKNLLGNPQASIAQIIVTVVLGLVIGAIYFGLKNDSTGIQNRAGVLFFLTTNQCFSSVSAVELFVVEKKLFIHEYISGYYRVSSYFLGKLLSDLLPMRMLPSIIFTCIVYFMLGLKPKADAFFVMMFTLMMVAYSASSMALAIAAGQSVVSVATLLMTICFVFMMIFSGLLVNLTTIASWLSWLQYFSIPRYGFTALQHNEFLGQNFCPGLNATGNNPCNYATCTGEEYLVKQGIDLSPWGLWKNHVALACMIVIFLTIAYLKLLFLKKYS
From the text: (§2) Glucuronide conjugates of the oxygenated metabolites are detected in human, monkey, and dog hepatocyte preparations. […] However, the abundance of CYP3A5, CYP2C19, and CYP2D6 in human liver microsomes is low (2%-5%) relative to the primary contributors, CYP3A4 (˜30%) and CYP2C9 (˜20%). […] Information on reproductive and developmental toxicology was obtained in a 28-day pivotal female fertility study in rats and in preliminary embryo-fetal development studies in rats and rabbits.

[10] = tested on: P-glycoprotein; assay: P-glycoprotein bidirectional transport; format: in vitro ADME, human, monkey, and rat
From the text: as §2

[11] = In vitro plasma protein binding, rat; format: in vitro ADME
From the text: as §1

[12] = 4-week oral toxicology in Beagle dogs
[13] = 90-day oral toxicology in Beagle dogs; conditions: dog, in vivo; for NOAEL at 90 days: both
[14] = biological target: T3, Cav3.3 (Homo sapiens, UniProt Q9P0X4); assay: Cav3.3 FLIPR calcium influx assay (HEK 293 cells); format: cell-based; conditions: read-out: IC50
T3 construct: expressed in transfected cells; host or cells: HEK 293
T3 sequence (Q9P0X4 whole entry, species assumed): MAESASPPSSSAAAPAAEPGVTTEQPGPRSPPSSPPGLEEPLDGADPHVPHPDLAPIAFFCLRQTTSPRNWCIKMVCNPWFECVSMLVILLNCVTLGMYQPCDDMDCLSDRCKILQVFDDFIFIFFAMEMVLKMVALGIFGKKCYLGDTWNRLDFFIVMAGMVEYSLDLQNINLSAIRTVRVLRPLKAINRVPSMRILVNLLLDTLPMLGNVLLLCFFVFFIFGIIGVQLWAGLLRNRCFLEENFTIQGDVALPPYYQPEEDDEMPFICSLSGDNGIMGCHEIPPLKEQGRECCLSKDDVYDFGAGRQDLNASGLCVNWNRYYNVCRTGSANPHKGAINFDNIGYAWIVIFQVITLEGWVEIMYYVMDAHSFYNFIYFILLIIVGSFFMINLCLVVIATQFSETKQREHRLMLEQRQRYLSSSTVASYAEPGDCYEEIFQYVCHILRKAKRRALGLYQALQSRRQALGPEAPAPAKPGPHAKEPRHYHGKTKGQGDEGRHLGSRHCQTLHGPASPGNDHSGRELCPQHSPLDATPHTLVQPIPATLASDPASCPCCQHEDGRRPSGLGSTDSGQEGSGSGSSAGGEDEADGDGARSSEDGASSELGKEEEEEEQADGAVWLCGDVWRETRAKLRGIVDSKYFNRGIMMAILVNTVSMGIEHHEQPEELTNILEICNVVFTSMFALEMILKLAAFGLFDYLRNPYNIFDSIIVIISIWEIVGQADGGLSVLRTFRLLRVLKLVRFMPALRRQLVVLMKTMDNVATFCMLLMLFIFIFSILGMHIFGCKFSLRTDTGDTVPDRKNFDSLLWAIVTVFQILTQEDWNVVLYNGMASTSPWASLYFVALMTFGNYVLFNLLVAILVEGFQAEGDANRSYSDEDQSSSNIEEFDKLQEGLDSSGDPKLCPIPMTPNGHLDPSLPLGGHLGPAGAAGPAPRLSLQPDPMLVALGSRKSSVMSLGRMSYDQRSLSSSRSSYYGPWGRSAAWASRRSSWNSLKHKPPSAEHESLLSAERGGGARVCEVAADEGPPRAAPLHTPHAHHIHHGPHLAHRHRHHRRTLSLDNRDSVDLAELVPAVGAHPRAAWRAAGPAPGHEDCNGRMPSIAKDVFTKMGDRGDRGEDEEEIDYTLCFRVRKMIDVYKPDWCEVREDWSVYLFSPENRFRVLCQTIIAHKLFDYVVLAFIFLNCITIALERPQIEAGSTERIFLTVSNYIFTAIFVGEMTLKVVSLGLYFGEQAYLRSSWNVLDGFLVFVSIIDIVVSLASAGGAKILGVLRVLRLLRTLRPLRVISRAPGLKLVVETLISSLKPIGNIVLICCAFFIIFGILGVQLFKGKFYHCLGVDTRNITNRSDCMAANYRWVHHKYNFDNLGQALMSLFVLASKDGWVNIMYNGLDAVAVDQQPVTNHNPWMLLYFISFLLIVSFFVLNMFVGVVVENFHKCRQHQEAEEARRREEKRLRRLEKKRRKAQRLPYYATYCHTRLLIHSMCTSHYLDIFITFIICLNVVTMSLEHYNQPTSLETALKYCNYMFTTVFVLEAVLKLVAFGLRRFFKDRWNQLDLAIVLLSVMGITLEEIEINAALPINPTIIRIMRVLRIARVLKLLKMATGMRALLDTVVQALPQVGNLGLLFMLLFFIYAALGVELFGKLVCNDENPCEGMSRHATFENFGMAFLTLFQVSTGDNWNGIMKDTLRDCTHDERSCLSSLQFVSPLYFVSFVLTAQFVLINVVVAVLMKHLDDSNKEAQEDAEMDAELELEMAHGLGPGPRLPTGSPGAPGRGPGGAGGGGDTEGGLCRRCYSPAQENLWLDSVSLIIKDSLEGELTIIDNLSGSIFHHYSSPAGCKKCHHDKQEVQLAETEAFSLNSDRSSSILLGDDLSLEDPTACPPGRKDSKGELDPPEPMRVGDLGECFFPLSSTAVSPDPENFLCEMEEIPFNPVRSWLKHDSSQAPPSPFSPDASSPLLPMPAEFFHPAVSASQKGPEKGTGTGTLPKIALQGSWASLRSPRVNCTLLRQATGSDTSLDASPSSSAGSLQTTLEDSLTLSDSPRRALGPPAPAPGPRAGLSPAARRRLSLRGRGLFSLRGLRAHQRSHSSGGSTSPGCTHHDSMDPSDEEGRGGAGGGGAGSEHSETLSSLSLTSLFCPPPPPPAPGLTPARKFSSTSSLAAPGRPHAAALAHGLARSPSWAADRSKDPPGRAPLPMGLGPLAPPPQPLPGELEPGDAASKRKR

[15] = Pharmacokinetics in rhesus monkeys; format: in vivo, rhesus monkey
Protocol: as §3

[16] = In vitro plasma protein binding, monkey; format: in vitro ADME
From the text: as §1

[17] = Beagle dog, 4-week toxicity, oral gavage
[18] = Monkey, IV 2 mg/kg, mean (SD), 3 animals

## CC(C)c1ccc(CC(=O)N[C@H](C)c2ccc(OCC(F)(F)F)cn2)cc1 [CX-8998]
[1]; female, 5 mg/kg/day
  half-life: 1.6 h
[1]; female, 100 mg/kg/day
  half-life: 9.25 h
[1]; female, 300 mg/kg/day
  half-life: 5.28 h
[1]; male, 15 mg/kg/day
  half-life: 2.87 h
[1]; male, 100 mg/kg/day
  Tmax: 2 h
  half-life: 3.72 h
[1]; male, 300 mg/kg/day
  half-life: 5.68 h
[2]; Dog, IV […], mean (SD), 3 animals
  t½: 7.3 (3.1) hr
[2]; Dog, oral 0.5 mg/kg vs IV […], mean (SD)
  F: 76 (47) %
[2]; dog, in vivo
  Vdss, mean: 0.8 L/kg
  half-life: 7.3 h
[2]; dog, plasma, po, 0.5 mg/kg, single dose
  bioavailability: 76%
[3]; Female dogs vs human 10 mg BID
  Day 90 Free Margin for AUC24 at NOAEL for Dog 90-Day Toxicology: 19
[3]; Female dogs vs human 10 mg BID (fed)
  Day 90 Free Margin for Cmax at NOAEL for Dog 90-Day Toxicology: 57
[3]; Female dogs
  Day 90 Free Plasma AUC24 at NOAEL for Dog 90-Day Toxicology: 1089 nM · hr
[3]; Female rats vs human 10 mg BID
  Day 90 Free Margin for AUC24 at NOAEL for Rat 90-Day Toxicology: 81
[3]; Female rats vs human 10 mg BID (fed)
  Day 90 Free Margin for Cmax at NOAEL for Rat 90-Day Toxicology: 184
[3]; Female rats
  Day 90 Free Plasma AUC24 at NOAEL for Rat 90-Day Toxicology: 4528 nM · hr
[3]; Male dogs vs human 10 mg BID
  Day 90 Free Margin for AUC24 at NOAEL for Dog 90-Day Toxicology: 18
[3]; Male dogs vs human 10 mg BID (fed)
  Day 90 Free Margin for Cmax at NOAEL for Dog 90-Day Toxicology: 51
[3]; Male dogs
  Day 90 Free Plasma AUC24 at NOAEL for Dog 90-Day Toxicology: 1005 nM · hr
[3]; Male rats vs human 10 mg BID
  Day 90 Free Margin for AUC24 at NOAEL for Rat 90-Day Toxicology: 37
[3]; Male rats vs human 10 mg BID (fed)
  Day 90 Free Margin for Cmax at NOAEL for Rat 90-Day Toxicology: 78
[3]; Male rats
  Day 90 Free Plasma AUC24 at NOAEL for Rat 90-Day Toxicology: 2088 nM · hr
[3]; beagle, dog
  NOAEL exposure vs intended free clinical exposures: approximately 20 times
[3]; rat
  Exposure without effects on fertility or reproduction vs intended clinical free AUC: > 100 times
  NOAEL exposure vs intended free clinical exposures: at least 39 times
[4]
  Time-dependent inhibition of CYP3A4 or CYP2B6: insignificant
[5]
  pIC50: < 4.70
[6]; IR Formulation
  AUC728, Mean: 7435 nMh
  AUC728: 9175 nMh and 4786 nMh and 6911 nMh and 7288 nMh and 4596 nMh and 7940 nMh and 13892 nMh and 7217 nMh and 7305 nMh and 9382 nMh and 5463 nMh and 6845 nMh and 5185 nMh and 8628 nMh and 6910 nMh
[6]; MR1 Formulation
  AUC728, Mean: 7526 nMh
  AUC728: 9494 nMh and 4762 nMh and 7028 nMh and 7387 nMh and 4102 nMh and 8335 nMh and 13265 nMh and 8177 nMh and 6271 nMh and 9351 nMh and 5184 nMh and 7996 nMh and 5635 nMh and 8950 nMh and 7114 nMh
[6]; MR2 Formulation
  AUC728, Mean: 7119 nMh
  AUC728: 11133 nMh and 3862 nMh and 8064 nMh and 6813 nMh and 4833 nMh and 8180 nMh and 10810 nMh and 6034 nMh and 6730 nMh and 10165 nMh and 4975 nMh and 6136 nMh and 3085 nMh and 10051 nMh and 5947 nMh
[6]; following a single 8 mg dose of MR1 CX-8998
  AUC72hr: 7530
[6]; following a single 8 mg dose of MR2 CX-8998
  AUC72hr: 7125
[7]; 1 mg, PN001/Part I, males 20-40 y, single 1 mg fed, read-out: Cmax
  Cmax: 56 nM
[7]; 1 mg, PN001/Part I, males 20-40 y, single 1 mg, morning fasted, read-out: Cmax
  Cmax: 104 nM
[7]; 1 mg, fasted, read-out: Cmax, mean
  Cmax: 104 nM
[7]; 1 mg, fed (high-fat meal), read-out: Cmax, mean
  Cmax: 56 nM
[7]; 2 mg, PN002/Part I, males 55-75 y, single 2 mg, morning fasted, read-out: Cmax
  Cmax: 198 nM
[7]; 8 mg, PN002/Part I, males 55-75 y, single 8 mg, morning fasted, read-out: Cmax
  Cmax: 708 nM
[7]; 8 mg, single 8 mg CX-8998, PN002/Part I middle-aged and elderly males, read-out: Cmax
  Cmax: 708 nM
[7]; 12 mg, PN002 Part 2, 12 mg, 1 dose
  AUC(0-t): 4.99 µM·h
[7]; 12 mg, PN002 Part 2, 12 mg, 1 dose, read-out: Cmax
  Cmax: 798 nM
[7]; 16 mg, PN001 Part 1, 16 mg, 1 dose
  AUC(0-t): 8.52 µM·h
[7]; 18 mg, PN001/Part II, males 22-39 y, single 18 mg, morning fasted, read-out: Cmax
  Cmax: 1180 nM
[7]; 18 mg, PN001 Part 2, 18 mg, 1 dose
  AUC(0-t): 9.93 µM·h
[7]; 18 mg, PN001 Part 2, 18 mg, 1 dose, read-out: Cmax
  Cmax: 1180 nM
[7]; 18 mg, PN002/Part I, males 55-75 y, single 18 mg, morning fasted, read-out: Cmax
  Cmax: 1330 nM
[7]; 18 mg, PN002 Part 1, 18 mg, 1 dose
  AUC(0-t): 9.44 µM·h
[7]; 18 mg, PN002 Part 1, 18 mg, 1 dose, read-out: Cmax
  Cmax: 1330 nM
[7]; 24 mg, PN001/Part I, males 20-40 y, single 24 mg evening, read-out: Cmax
  Cmax: 1370 nM
[7]; Average of studies, dose 16, 1 dose
  AUC(0-t): 8.22 µM·h
[7]; Average of studies, dose 16, 1 dose, read-out: Cmax
  Cmax: 1060 nM
[7]; middle-aged and elderly female, 8 mg
  Mean Cmax higher than in younger male subjects: 6%
[7]; middle-aged and elderly male, 8 mg
  Mean Cmax higher than in younger male subjects: 28%
[7]; vs fasted state
  Reduction in Cmax with food: 45%
[8]; dog plasma, read-out: In vitro plasma protein binding (converted)
  fraction unbound: ~0.003
[8]; dogs, read-out: free fraction
  fraction unbound: 0.003
[8]; read-out: Free fraction in dog plasma
  fraction unbound: 0.003
[9]
  Inhibition of BCRP transport: 57%
[10]
  P-glycoprotein substrate or inhibitor activity: did not demonstrate any activity as a substrate or inhibitor
[11]; rat plasma, read-out: In vitro plasma protein binding (converted)
  fraction unbound: ~0.008
[11]; rats, read-out: free fraction
  fraction unbound: 0.008
[11]; rodents, read-out: Plasma-free fraction
  fraction unbound: 0.004
[12]; [17]
  NOEL: NOEL. 20 mg/kg/day. Dose-limiting
  dose at which dose-limiting toxicity (mortality, physical signs) was observed: observed at 800 mg/kg/day
[12]; dog, in vivo
  NOEL: 20 mg/kg/day
  Safety margin (AUC24) at the NOEL over expected clinical exposure: approximately 30 fold
[13]; Beagle, po
  NOAEL at 90 days: 30 mg/kg/day
[13]; beagle, oral
  NOAEL at 90 days: 30 mg/kg/day
[13]; female, Beagle, po, 10 mg/kg/day
  AUC: 163 µM·h
[13]; female, beagle, po, 30 mg/kg/day
  AUC: 363 µM·h
[13]; male, Beagle, po, 30 mg/kg/day
  AUC: 335 µM·h
[14]; depolarizing conditions
  pIC50: ~8.44 and 8.44
[14]; hyperpolarizing conditions
  pIC50: ~6.79 and 6.79
[15]; [18]
  CL: 15.9 (2.5) mL/min/kg
  t½: 1.3 (0.3) hr
[15]; Monkey, oral 20 mg/kg vs IV 2 mg/kg, mean (SD)
  F: 2.8 (10.) %
[15]; rhesus monkey, in vivo
  Plasma clearance: 16 mL/min/kg
  Vdss, mean: 0.9 L/kg
  half-life: 1.3 h
[16]
  fraction unbound: ~0.012
